Holding throughout (parameters): 5 μl of radiolabelled SAP in TN; from tissue
In experiment [1] the target is T1, SAP (Homo sapiens, UniProt P02743). Nature of the experiment: Inhibition of binding of 125I radiolabelled SAP to Neisseria meningitidis immobilized in microtitre plates. The note with it: for inhibition at 0.2 µM / inhibition at 2 µM / inhibition at 20 µM / inhibition at 200 µM / inhibition at 2000 µM: read-out: Percent inhibition of binding of radiolabelled SAP to immobilized Neisseria meningitidis. As for the experimental part: A suspension of heat killed Neisseria meningitidis at 1×10^8 organisms per ml in PBS was dispensed to polystyrene microtitre plates at 50 μl volumes per well, and left overnight at 4° C. All wells were then washed three times with 200 μl volumes of PBS containing 0.05% v/v Tween 20, prior to equilibration for 2 min with 0.01M Tris buffered 0.14M NaCl/0.002M CaCl2 at pH 8.0 (TC buffer), containing 4% w/v BSA and 0.05%/v Tween 20 (TCBT buffer). The wells were then emptied before adding to each one the following reagents. […] For background, non-specific, non calcium dependent, binding in the presence of EDTA: 5 μl radiolabelled SAP in TN and 45 μl 0.01M Tris buffered 0.14M NaCl at pH 8.0 containing 11.1 mM EDTA, 4.4% w/v BSA and 0.06% w/v Tween 20 (TEBT buffer) to provide final concentrations of EDTA, 10 mM; BSA, 4%; Tween 20, 0.05%. […] All wells were then incubated at room temperature for 2 h before being washed three times with 200 μl volumes of TCBT, allowed to dry for 1 h at room temperature, and bound radiolabelled SAP was then counted.
The capacity of the compounds tested to inhibit binding of SAP to meningococci is expressed as the percentage by which SAP binding was reduced compared to binding in the absence of any inhibitor (Table 1).

The target in experiment [2] is T1, SAP. Nature of the experiment: Inhibition of binding of 125I radiolabelled SAP to influenza virus immobilized in microtitre plates. The note with it: for inhibition at 0.2 µM / inhibition at 2 µM / inhibition at 20 µM / inhibition at 200 µM / inhibition at 2000 µM: read-out: Percent inhibition of binding of radiolabelled SAP to immobilized influenza virus. As for the experimental part:
A concentrated suspension of purified influenza virus A/Shanghai/24/90 at 10 mg protein per ml in PBS was diluted 1:50 in PBS and then dispensed to polystyrene microtitre plates at 50 μl volumes per well, and left overnight at 4° C. All wells were then emptied before blocking by addition to each well of 200 μl of 2% w/v BSA in PBS and incubation at room temperature for 1 h. All wells were then washed three times with 200 μl volumes of PBS containing 0.05% v/v Tween 20, prior to equilibration for 2 min with 0.01M Tris buffered 0.14M NaCl/0.002M CaCl2 at pH 8.0 (TC buffer), containing 4% w/v BSA and 0.05% v/v Tween 20 (TCBT buffer). The wells were then emptied before adding to each one the following reagents. […] For background, non-specific, non calcium dependent, binding in the presence of EDTA: 5 μl radiolabelled SAP in TN and 45 μl 0.01M Tris buffered 0.14M NaCl at pH 8.0 containing 11.1 mM EDTA, 4.4% w/v BSA and 0.06% w/v Tween 20 (TEBT buffer) to provide final concentrations of EDTA, 10 mM; BSA, 4%; Tween 20, 0.05%. […] All wells were then incubated at room temperature for 2 h before being washed three times with 200 μl volumes of TCBT, allowed to dry for 1 h at room temperature, and bound radiolabelled SAP was then counted. The compounds tested in the experiment shown here were the same as those specified in Example B above.
The capacity of the compounds tested to inhibit binding of SAP to the immobilised influenza virus is expressed as the percentage by which SAP binding was reduced compared to binding in the absence of any inhibitor (Table 3).

The target in experiment [3] is T1, SAP. In words: Inhibition of binding of 125I radiolabelled SAP to native long chromatin immobilized in microtitre plates. The note with it: for inhibition at 0.2 µM / inhibition at 2 µM / inhibition at 20 µM / inhibition at 200 µM / inhibition at 2000 µM: read-out: Percent inhibition of binding of radiolabelled SAP to immobilized native long chromatin.

T1 sequence (P02743 20-223): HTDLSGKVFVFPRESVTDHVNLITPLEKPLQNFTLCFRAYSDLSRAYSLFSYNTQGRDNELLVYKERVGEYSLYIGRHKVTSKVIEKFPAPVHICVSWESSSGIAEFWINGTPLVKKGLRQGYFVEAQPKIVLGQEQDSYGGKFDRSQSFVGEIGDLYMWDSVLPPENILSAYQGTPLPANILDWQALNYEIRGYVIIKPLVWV

Consider `Cc1c(OCC(=O)N2CCC[C@@H]2C(=O)O)cccc1OCC(=O)N1CCC[C@@H]1C(=O)O` [Ro-64-2848, (R)-1-[[3-[2-[(R)-1-Carboxy-pyrrolidin-1-yl]-2-oxo-ethoxy]-2-methyl-phenoxy]-acetyl]-pyrrolidine-2-carboxylic acid], for which the “Percent inhibition of binding of radiolabelled SAP to immobilized Neisseria meningitidis” value in experiment [1] (compound 200 nM) worked out at 1%; in experiment [1] (compound 2 μM), 64%; in experiment [1] (compound 20 μM) it was 93%; in experiment [1] (compound 200 μM), 100%; in experiment [1] (compound 2 mM) it was 100%. Also, the “Percent inhibition of binding of radiolabelled SAP to immobilized influenza virus” value turned out to be 24% in experiment [2] (compound 200 nM); 65% in experiment [2] (compound 2 μM); 81% in experiment [2] (compound 20 μM); 81% in experiment [2] (compound 200 μM); 85% in experiment [2] (compound 2 mM). Also, the “Percent inhibition of binding of radiolabelled SAP to immobilized native long chromatin” value in experiment [3] (compound 200 nM) is listed as 0%; in experiment [3] (compound 2 μM), 22%; in experiment [3] (compound 20 μM) it was 65%; in experiment [3] (compound 200 μM), 95%; in experiment [3] (compound 2 mM), 98%.

Broadly, the inhibition is the percentage by which the read-out fell short of the control. As for `O=C(O)[C@H]1CCCN1C(=O)Cc1cccc(CC(=O)N2CCC[C@@H]2C(=O)O)c1` [Ro-64-2668, (R)-1-[[3-[2-[(R)-2-Carboxy-pyrrolidin-1-yl]-2-oxo-ethyl]-phenyl]-acetyl]-pyrrolidine-2-carboxylic acid], the inhibition at 0.2 µM came out at 28% in experiment [1] (compound 200 nM), 25% in experiment [2] (compound 200 nM) and 0% in experiment [3] (compound 200 nM). Moreover, the inhibition at 2 µM in experiment [1] (compound 2 μM) was 64%; in experiment [2] (compound 2 μM), 68%; in experiment [3] (compound 2 μM), 18%. In addition, the values for the inhibition at 20 µM in experiment [1] (compound 20 μM), in experiment [2] (compound 20 μM) and in experiment [3] (compound 20 μM) were 92%, 73% and 56%, respectively. Also, the inhibition at 200 µM was found to be 100% in experiment [1] (compound 200 μM), 77% in experiment [2] (compound 200 μM) and 94% in experiment [3] (compound 200 μM). The results for the inhibition at 2000 µM in experiment [1] (compound 2 mM), in experiment [2] (compound 2 mM) and in experiment [3] (compound 2 mM) were 100%, 82% and 98%, respectively.

In the case of `O=C(O)[C@H]1CCCN1C(=O)[C@H]1CC[C@@H](C(=O)N2CCC[C@@H]2C(=O)O)CC1` [Ro-64-2600, (R)-1-[cis-4-[(R)-2-Carboxy-pyrrolidine-1-carbonyl]-cyclohexanecarbonyl]-pyrrolidine-2-carboxylic acid], the inhibition at 0.2 µM in experiment [1] (compound 200 nM) stood at 31%; in experiment [2] (compound 200 nM) it was 0%; in experiment [3] (compound 200 nM) it was 1%. Besides, the inhibition at 2 µM in experiment [1] (compound 2 μM) came to 73%; in experiment [2] (compound 2 μM) it was 76%; in experiment [3] (compound 2 μM) it was 35%. The inhibition at 20 µM was determined as 93% in experiment [1] (compound 20 μM), 83% in experiment [2] (compound 20 μM) and 67% in experiment [3] (compound 20 μM). For the same compound, the results for the inhibition at 200 µM in experiment [2] (compound 200 μM) and in experiment [3] (compound 200 μM) were 89% and 94%, respectively. In addition, the inhibition at 2000 µM in experiment [2] (compound 2 mM) was 92%; in experiment [3] (compound 2 mM) it was 100%.

In the case of `O=C(O)[C@H]1CCCN1C(=O)Cc1ccc(CC(=O)N2CCC[C@@H]2C(=O)O)cc1` [Ro-63-7777, (R)-1-[[4-[2-[(R)-2-Carboxy-pyrrolidin-1-yl]-2-oxo-ethyl]-phenyl]-acetyl]-pyrrolidine-2-carboxylic acid], the values for the inhibition at 0.2 µM in experiment [1] (compound 200 nM), in experiment [2] (compound 200 nM) and in experiment [3] (compound 200 nM) were 7%, 37% and 4%, respectively. Moreover, the inhibition at 2 µM amounted to 64% in experiment [1] (compound 2 μM), 65% in experiment [2] (compound 2 μM) and 19% in experiment [3] (compound 2 μM). Also, the inhibition at 20 µM in experiment [1] (compound 20 μM) was 73%; in experiment [2] (compound 20 μM), 85%; in experiment [3] (compound 20 μM), 39%. The inhibition at 200 µM in experiment [1] (compound 200 μM) turned out to be 100%; in experiment [2] (compound 200 μM), 89%; in experiment [3] (compound 200 μM) it was 66%. Moreover, the inhibition at 2000 µM in experiment [1] (compound 2 mM) was found to be 100%; in experiment [2] (compound 2 mM), 89%; in experiment [3] (compound 2 mM) it was 92%.

Regarding `O=C(O)[C@H]1CCCN1C(=O)Cc1ccc(CC(=O)N2CCC[C@@H]2C(=O)O)c2ccccc12` [Ro-64-5607, (R)-1-[[4-[2-[(R)-2-Carboxy-pyrrolidin-1-yl]-2-oxo-ethyl]-naphthalen-1-yl]-acetyl]-pyrrolidine-2-carboxylic acid], the inhibition at 0.2 µM was determined as 13% in experiment [1] (compound 200 nM), 4% in experiment [2] (compound 200 nM) and 15% in experiment [3] (compound 200 nM). For the same compound, the values for the inhibition at 2 µM in experiment [1] (compound 2 μM), in experiment [2] (compound 2 μM) and in experiment [3] (compound 2 μM) were 69%, 64% and 35%, respectively. For the same compound, the inhibition at 20 µM in experiment [1] (compound 20 μM) came to 89%; in experiment [2] (compound 20 μM), 95%; in experiment [3] (compound 20 μM) it was 77%. The inhibition at 200 µM in experiment [2] (compound 200 μM) was 94%; in experiment [3] (compound 200 μM), 96%. Further, the inhibition at 2000 µM in experiment [2] (compound 2 mM) was 98%; in experiment [3] (compound 2 mM), 100%.

For the compound `O=C(O)[C@H]1CCCN1C(=O)COc1cccc2c(OCC(=O)N3CCC[C@@H]3C(=O)O)cccc12` [Ro-64-5445, (R)-1-[[5-[2-[(R)-2-Carboxy-pyrrolidin-1-yl]-2-oxo-ethoxy]-naphthalen-1-yloxy]-acetyl]-pyrrolidine-2-carboxylic acid], the inhibition at 0.2 µM in experiment [1] (compound 200 nM) came to 30%; in experiment [2] (compound 200 nM), 23%; in experiment [3] (compound 200 nM), 12%. Also, the inhibition at 2 µM in experiment [1] (compound 2 μM) is 72%; in experiment [3] (compound 2 μM), 51%. Moreover, the inhibition at 20 µM in experiment [1] (compound 20 μM) is 81%; in experiment [2] (compound 20 μM) it was 64%; in experiment [3] (compound 20 μM), 74%. For the same compound, the results for the inhibition at 200 µM in experiment [1] (compound 200 μM), in experiment [2] (compound 200 μM) and in experiment [3] (compound 200 μM) were 100%, 76% and 82%, respectively. Moreover, the inhibition at 2000 µM in experiment [1] (compound 2 mM) stood at 100%; in experiment [2] (compound 2 mM), 80%; in experiment [3] (compound 2 mM) it was 96%.

In the case of `COc1cccc(OCC(=O)N2CCC[C@@H]2C(=O)O)c1OCC(=O)N1CCC[C@@H]1C(=O)O` [Ro-64-2845, (R)-1-[[2-[2-[(R)-2-carboxy-pyrrolidin-1-yl]-2-oxo-ethoxy]-3-methoxy-phenoxy]-acetyl]-pyrrolidine-2-carboxylic acid], the inhibition at 0.2 µM in experiment [1] (compound 200 nM) is 19%; in experiment [2] (compound 200 nM) it was 16%; in experiment [3] (compound 200 nM) it was 11%. In addition, the inhibition at 2 µM worked out at 74% in experiment [1] (compound 2 μM) and 52% in experiment [2] (compound 2 μM). The inhibition at 20 µM is 92% in experiment [1] (compound 20 μM), 62% in experiment [2] (compound 20 μM) and 75% in experiment [3] (compound 20 μM). Also, the inhibition at 200 µM in experiment [1] (compound 200 μM) came to 93%; in experiment [2] (compound 200 μM) it was 77%; in experiment [3] (compound 200 μM), 96%. Besides, the inhibition at 2000 µM in experiment [2] (compound 2 mM) turned out to be 89%; in experiment [3] (compound 2 mM), 100%.

(Values after patent US7659299B2, “Compounds inhibiting the binding of sap for treating osteoarthritis” (Pentraxin Therapeutics Limited, priority 2003, dated 2010).)
